Test results taken from patent US20230181474A1, “TABLET COMPRISING OPICAPONE” (Ono Pharmaceutical Co., Ltd., priority 2020, published 2023).

assay: Evaluation of particle size by dynamic particle image analysis (iSpect DIA-10); format: physicochemical; details: dispersion medium 10% polysorbate 20 aqueous solution
Description: In the present specification, “maximum length” refers to a maximum length between two points on a contour of a particle, and this may be measured by the dynamic image analysis method. An example of the equipment used for measurement is the dynamic particle image analysis system iSpect DIA-10 (Shimadzu Corporation). In the present invention, the maximum length of particles of opicapone or a pharmaceutically acceptable salt thereof in terms of D50 value is less than 46 µm, preferably 45 µm or less, more preferably 40 µm or less, even more preferably 35 µm or less, and particularly preferably 30 µm or less or 29 µm or less. In the present invention, the maximum length of particles of opicapone or a pharmaceutically acceptable salt thereof in terms of D90 value is, for example, less than 111 µm, preferably 110 µm or less, more preferably 100 µm or less, even more preferably 90 µm or less, and particularly preferably 80 µm or less.
In the present specification, “equivalent circle diameter” refers to the diameter of a circle that has the same area as the projected area of a particle image, and this may be measured by the dynamic image analysis method. An example of the equipment used for measurement is the dynamic particle image analysis system iSpect DIA-10 (Shimadzu Corporation).
The particle sizes of the non-micronized product and the micronized products A1 to A4 prepared in Example 1 using the opicapone drug substance were measured under the following conditions.
• Measurement equipment: Dynamic particle image analysis system iSpect DIA-10 (Shimadzu Corporation) • Evaluation items: Equivalent circle diameter, maximum length • Dispersion medium: 10% polysorbate 20 aqueous solution • Sample: Approximately 10 mg of the measurement sample was placed in 1 ml of the dispersion medium, suspended, and then diluted 100-fold.

| Equivalent Circle Diameter D10 [µm] | Equivalent Circle Diameter D50 [µm] | Equivalent Circle Diameter D90 [µm] | Maximum Length D10 [µm] | Maximum Length D50 [µm] | Maximum Length D90 [µm] | SMILES |
| --- | --- | --- | --- | --- | --- | --- |
| 7 | 11 | 18 | 16 | 26 | 60 | Cc1nc(Cl)c(-c2noc(-c3cc(O)c(O)c([N+](=O)[O-])c3)n2)c(C)c1Cl [Micronized Product A2] |
| 7 | 11 | – | 16 | 28 | 63 | Cc1nc(Cl)c(-c2noc(-c3cc(O)c(O)c([N+](=O)[O-])c3)n2)c(C)c1Cl [Micronized Product A 1] |
| 6 | 13 | 23 | 16 | – | 111 | Cc1nc(Cl)c(-c2noc(-c3cc(O)c(O)c([N+](=O)[O-])c3)n2)c(C)c1Cl [Non-micronized Product] |
| 7 | 11 | 19 | 15 | – | 73 | Cc1nc(Cl)c(-c2noc(-c3cc(O)c(O)c([N+](=O)[O-])c3)n2)c(C)c1Cl [Micronized Product A3] |
